The values below come from ChEMBL document CHEMBL1129301, “Synthesis and biological evaluation of DL-4,4-difluoroglutamic acid and DL-gamma,gamma-difluoromethotrexate” (J Med Chem, 1996).

The structures appear in SMILES notation.

Test [1] relates to CCRF-CEM. Put plainly: cells. The conditions noted are these: Homo sapiens, 3 h.
The target of the next test is T1, Dihydrofolate reductase (Homo sapiens, UniProt P00374).
T1 sequence (P00374 whole entry): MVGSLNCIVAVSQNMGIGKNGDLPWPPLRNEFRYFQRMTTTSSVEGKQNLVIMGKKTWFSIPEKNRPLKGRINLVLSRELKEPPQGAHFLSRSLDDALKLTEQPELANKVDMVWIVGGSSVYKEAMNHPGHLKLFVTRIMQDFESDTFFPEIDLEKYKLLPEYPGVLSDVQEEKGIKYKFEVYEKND
Nature of the test: Inhibitory activity against purified human dihydrofolate reductase (DHFR) in human leukemia cells (CCRF-CEM).

For test [2], the system named is CCRF-CEM. Put plainly: Growth inhibition of CCRF-CEM subline resistant to MTX solely as a result of a 25-fold increase in wild-type DHFR activity during continuous (120 h) exposure to MTX. The class given is functional. As to conditions: Homo sapiens, read-out: ED50 (the source's name).
For test [3], the system named is CCRF-CEM. Put plainly: Growth inhibition of CCRF-CEM subline resistant to MTX solely as a result of decreased polyglutamylation during continuous (120 h) exposure. The format is functional. As to conditions: Homo sapiens, read-out: ED50 (the source's name).
The subject of test [4] is CCRF-CEM. Put plainly: Compound was evaluated for growth inhibition of parental CCRF-CEM during continuous (120 h) exposure to MTX. The class given is functional. The conditions noted are these: Homo sapiens, read-out: ED50 (the source's name).
Test [5] concerns CCRF-CEM. Put plainly: Growth inhibition of CCRF-CEM subline resistant to MTX solely as a result of decreased MTX influx during continuous (120 h) exposure. The format is functional. The conditions noted are these: Homo sapiens, read-out: ED50 (the source's name).

Usually IC50 stands for the point on the concentration scale where inhibition reaches its midpoint. `Nc1nc(N)c2nc(CNc3ccc(C(=O)N[C@@H](CCC(=O)O)C(=O)O)cc3)cnc2n1` [AMINOPTERIN] came in with an IC50 in the test on CCRF-CEM [1] of 3 µM.
As to `CN(Cc1cnc2nc(N)nc(N)c2n1)c1ccc(C(=O)NC(CC(F)(F)C(=O)O)C(=O)O)cc1` (stereo not drawn), inhibition at Dihydrofolate reductase was half-maximal at 1.53 µM (IC50). Besides, the EC50 in the test on CCRF-CEM [2] stood at 0.7 µM; with CCRF-CEM [3], 0.0243 µM; in the test with CCRF-CEM [4], 0.029 µM; with CCRF-CEM [5], 2.15 µM.
Turning to `CN(Cc1cnc2nc(N)nc(N)c2n1)c1ccc(C(=O)N[C@@H](CCC(=O)O)C(=O)O)cc1` [METHOTREXATE], the EC50 with CCRF-CEM [2] came to 0.655 µM; in the test with CCRF-CEM [5], 2.55 µM.
